From a melting point compilation (Tetko et al.; mined from patent text by program, amines drawn as free bases though some values may be those of a salt)

Compound | melting point [°C]
COc1ccc(Cn2cnc3c(-c4ccco4)nc(SC)nc32)cc1 | 147 to 148
O=C1Nc2ccccc2N2CCN(CCc3ccccn3)CC12 (centres undefined) | 167 to 169
COc1ccc(C=Cc2ccc(CBr)cc2)c(Cl)c1 | 99 to 100
Cc1cc(Br)cn2cc(-c3ccc(C#N)cc3)nc12 | 209 to 210
Cc1ccc(Cn2cc(C(=O)C(=O)NC3=CC(=O)OC3)c3ccc(F)cc32)cc1 | 218 to 220
N#CCc1nc(C(=O)c2ccc(Cl)cc2)no1 | 81 to 84
CCOC(=O)C(=O)Nc1c([N+](=O)[O-])cc(Br)c2ccccc12 | 190 to 191
CN(O)C(=O)Cc1ccccc1Nc1c(Cl)cccc1Cl | 135 to 138
COc1cc2c(cc1OCc1ccccc1)CC(C)(C)N(C(=O)c1cc(OC)c(OC)c(OC)c1)C2C (centres undefined) | 175 to 177
NC(=O)CCN1CCN(C(=O)c2cc(C(F)(F)F)cc(C(F)(F)F)c2)[C@H](Cc2c[nH]c3ccccc23)C1 | 80 to 100
COc1ccccc1N1CCN(CCn2c(=O)[nH]c3sc(C)c(C)c3c2=O)CC1 | 196 to 197
O=C(c1ccc(F)cc1)N1CCC[C@H](c2nc(-c3ccc([N+](=O)[O-])cc3)no2)C1 | 162 to 164
O=C1N(Cc2ccccn2)c2cccc(-c3ccc(Oc4ccccc4)cc3)c2C12COc1cc3c(cc12)OCCO3 (centres undefined) | 196 to 199
COc1cc(C=NN(C)C)c([N+](=O)[O-])cc1OC | 143 to 145
CC(=O)c1ccc(Nc2ccccc2)cc1 | 105
Cc1ccc(COc2ccc(C(=O)NC[C@@H](C(=O)NO)N3CCCCC3)cc2)c2ccccc12 | 123
COC(=O)Cc1cc(C(=O)c2ccccc2Cl)c(N)s1 | 102 to 105
CC(=O)NC(Cc1ccccc1)C(=O)OCc1cc(C)cc(C)c1 (centres undefined) | 97 to 100
O=C(NCc1ccc(Cl)cc1)c1cnc2ccc(I)cc2c1O | 297 to 299
N#CC(Cc1ccc(O)cc1)c1noc2cc(O)ccc12 (centres undefined) | 214
COC(=O)c1cc(-c2nc(COc3ccc(COc4nn(-c5ccccc5)cc4C=O)cc3OC)c(C)o2)ccc1OS(C)(=O)=O | 136 to 137
Cc1cc(C#N)c(C)c(C(=O)Nc2ccc(Cl)cn2)n1 | 264
Cc1c(Br)c(C#N)nn1C | 92 to 94
COC(=O)C(NC(=O)OCc1ccccc1)OC (centres undefined) | 74 to 75
N#Cc1ccc(OCc2ccsc2)cc1OC(C(=O)O)c1ccccc1F (racemic) | 159 to 161

Compound | melting point [°C]
Fc1ccc(-c2ncncc2CCN2CCC(c3csc4cc(F)ccc34)CC2)cc1 | 123 to 124
CC(C)(C)c1cc(C(=O)c2cccs2)cc(CN(C2CCCCC2)C2CCCCC2)c1O | 161 to 162
CC(SC1COC(c2cccc(C(=O)Nc3ccc(C#N)cc3)c2)OC1)C(O)(Cn1cncn1)c1ccc(F)cc1F (centres undefined) | 105
COc1ccc2c(c1O)C(=O)O[C@@H]2[C@H]1c2c(cc3c(c2OC)OCO3)CCN1C | 142 to 143
O=C(NN=C1C=CC=NC1)c1cccnc1 | 213 to 216
COc1ccc(CCc2cc3c(s2)-n2c(C)nnc2CN=C3c2ccccc2Cl)cc1 | 100 to 105
Cc1cc(Cl)ccc1N1C(=O)CON(C)C1=S | 141 to 143
CCOC(=O)CCCCn1c(C(=O)NCc2nnc(C)n2-c2sc(CC)cc2C(=O)c2ccccc2Cl)cc2ccccc21 | 85 to 87
CCOC(=O)Nc1csc2cc(OC)ccc12 | 88
COC(=O)c1nc2c(NC(=O)C(C)(C)C)cccn2c1C | 132
COc1ccc(C(C#N)Sc2ccccn2)cc1OC (centres undefined) | 108 to 110
COc1cc(OC)nc(Oc2cc(C)nc(-c3ccccc3)c2C(=O)O)n1 | 277 to 284
COc1ccc(NC(=O)c2ccc(-c3ccc(-c4noc(C)n4)cc3C)cc2)cc1OCCN | 150 to 153
COc1ccc(C(=O)CC(=O)c2snc(Cl)c2Cl)cc1 | 138 to 139
CC(C)OC(=O)c1cc(N)n(C)n1 | 86 to 87
CCCCCCCCCCCCCCCCOc1c2ncnc(SCC(=O)OCCCC)c2nn1C | 64 to 67
CC(=O)CCc1ccc(-c2ccccc2)cc1 | 76 to 77
CCOCCn1c(N2CCCN(CCC3(c4ccc(OC)c(OC)c4)CCN(C(=O)c4cc(OC)c(OC)c(OC)c4)C3)CC2)nc2ccccc21 (centres undefined) | 90 to 100
Cn1c2ccc([N+](=O)[O-])cc2c2c3c(ccc21)C(=O)OC3=O | > 300
CC1(C)CCC(C)(C)c2cc(C(=O)C(=O)c3ccc(C(=O)O)cc3)ccc21 | 148 to 151
O=C(O)COc1ccc(SCc2ccc(OCc3ccc(OC(F)(F)F)cc3)cc2)c2c1CCC2 | 140 to 142
CC1CNc2c(cnc3cc(Cl)ccc23)O1 (centres undefined) | 239 to 241
CC(C)c1ccc(CCCN(C)[C@H]2CC[C@H](c3ccc4[nH]c(=O)oc4c3)CC2)cc1 | 179 to 181
Cn1nnc(Cc2ccc3c(c2)c(C2=CCN(CCN4CCNC4=O)CC2)cn3-c2ccc(F)cc2)n1 | 129 to 131
